Source: patent US9580416B2, “Inhibitors of Bruton's tyrosine kinase” (PHARMACYCLICS LLC, priority 2014, dated 2017)

What was measured:
Assay type in all cases: biochemical
Btk = Btk (Homo sapiens, UniProt Q06187); assay: Btk kinase activity, TR-FRET assay; conditions: read-out: Btk (IC50)
Outline: (§1)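 Enzyme (Btk 0.5 nM; Lck 6 nM) reacted 1 h with inhibitor, ATP at Km and biotin-peptide substrate in pH 7.4 buffer, 10% DMSO. Phosphopeptide detected by Eu-p-Tyr100 antibody plus streptavidin-APC (665/615 nm). IC50 calculated from fitted Ki(app) via ATP/Km correction plus half total enzyme.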

EGFR = EGFR (Homo sapiens, UniProt P00533); assay: Inhibition of a panel of kinases, in vitro HotSpot kinase assay: EGFR
Experimental: (§2) The degree of inhibition of a panel of kinases is determined using the in vitro HotSpot kinase assay (purified enzymes, ^33P-ATP, an appropriate substrate and 1 uM ATP).

JAK3 = target: T1, JAK3 (Homo sapiens, UniProt P52333); assay: Inhibition of a panel of kinases, in vitro HotSpot kinase assay: JAK3
T1 sequence (P52333 1-1124): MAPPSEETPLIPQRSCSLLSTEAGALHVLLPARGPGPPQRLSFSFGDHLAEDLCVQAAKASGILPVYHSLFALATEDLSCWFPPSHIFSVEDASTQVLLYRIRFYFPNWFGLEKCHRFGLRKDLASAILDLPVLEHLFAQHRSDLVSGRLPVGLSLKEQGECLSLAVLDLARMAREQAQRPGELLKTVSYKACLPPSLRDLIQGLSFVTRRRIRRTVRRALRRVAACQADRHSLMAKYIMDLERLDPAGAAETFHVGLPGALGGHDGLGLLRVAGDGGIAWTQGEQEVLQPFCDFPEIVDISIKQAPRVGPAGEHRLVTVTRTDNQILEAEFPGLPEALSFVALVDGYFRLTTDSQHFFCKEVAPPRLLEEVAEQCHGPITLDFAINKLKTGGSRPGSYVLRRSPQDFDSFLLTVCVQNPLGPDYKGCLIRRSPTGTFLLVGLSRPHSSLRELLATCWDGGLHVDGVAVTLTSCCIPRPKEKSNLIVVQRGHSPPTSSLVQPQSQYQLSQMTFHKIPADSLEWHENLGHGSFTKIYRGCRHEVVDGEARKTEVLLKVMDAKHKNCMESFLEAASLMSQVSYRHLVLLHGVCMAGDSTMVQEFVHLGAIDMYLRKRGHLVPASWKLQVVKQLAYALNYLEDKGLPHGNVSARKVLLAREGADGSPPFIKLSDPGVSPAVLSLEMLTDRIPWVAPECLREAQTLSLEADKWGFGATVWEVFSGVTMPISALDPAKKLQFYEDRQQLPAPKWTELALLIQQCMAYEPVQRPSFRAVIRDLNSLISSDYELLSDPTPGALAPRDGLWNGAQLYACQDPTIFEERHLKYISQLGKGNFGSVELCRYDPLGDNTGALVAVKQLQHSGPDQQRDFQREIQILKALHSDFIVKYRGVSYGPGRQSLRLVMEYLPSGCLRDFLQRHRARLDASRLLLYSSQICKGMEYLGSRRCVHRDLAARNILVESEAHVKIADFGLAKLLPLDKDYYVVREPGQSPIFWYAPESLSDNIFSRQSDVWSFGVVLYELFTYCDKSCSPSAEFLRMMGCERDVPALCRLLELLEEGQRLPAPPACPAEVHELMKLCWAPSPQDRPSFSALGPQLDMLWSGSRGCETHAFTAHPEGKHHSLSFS
Experimental: as §2

Lck = Lck (Homo sapiens, UniProt P06239); assay: Lck kinase activity, TR-FRET assay; conditions: read-out: LCK (IC50)
Outline: as §1

Chain of Lck (P06239 whole entry, species assumed): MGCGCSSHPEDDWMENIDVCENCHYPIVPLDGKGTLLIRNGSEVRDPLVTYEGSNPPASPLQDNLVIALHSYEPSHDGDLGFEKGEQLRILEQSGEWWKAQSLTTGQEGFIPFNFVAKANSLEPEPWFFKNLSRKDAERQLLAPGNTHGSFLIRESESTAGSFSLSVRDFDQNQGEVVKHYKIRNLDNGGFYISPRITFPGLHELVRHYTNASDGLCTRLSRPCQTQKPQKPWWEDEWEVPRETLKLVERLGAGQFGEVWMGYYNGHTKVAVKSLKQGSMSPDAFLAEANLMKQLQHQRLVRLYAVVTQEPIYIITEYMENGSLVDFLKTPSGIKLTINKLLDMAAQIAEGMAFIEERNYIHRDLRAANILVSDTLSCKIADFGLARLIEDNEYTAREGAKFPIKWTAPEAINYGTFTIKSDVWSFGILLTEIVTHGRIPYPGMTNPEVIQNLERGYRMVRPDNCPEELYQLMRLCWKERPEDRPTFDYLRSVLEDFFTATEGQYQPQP
Chain of EGFR (P00533 25-1210): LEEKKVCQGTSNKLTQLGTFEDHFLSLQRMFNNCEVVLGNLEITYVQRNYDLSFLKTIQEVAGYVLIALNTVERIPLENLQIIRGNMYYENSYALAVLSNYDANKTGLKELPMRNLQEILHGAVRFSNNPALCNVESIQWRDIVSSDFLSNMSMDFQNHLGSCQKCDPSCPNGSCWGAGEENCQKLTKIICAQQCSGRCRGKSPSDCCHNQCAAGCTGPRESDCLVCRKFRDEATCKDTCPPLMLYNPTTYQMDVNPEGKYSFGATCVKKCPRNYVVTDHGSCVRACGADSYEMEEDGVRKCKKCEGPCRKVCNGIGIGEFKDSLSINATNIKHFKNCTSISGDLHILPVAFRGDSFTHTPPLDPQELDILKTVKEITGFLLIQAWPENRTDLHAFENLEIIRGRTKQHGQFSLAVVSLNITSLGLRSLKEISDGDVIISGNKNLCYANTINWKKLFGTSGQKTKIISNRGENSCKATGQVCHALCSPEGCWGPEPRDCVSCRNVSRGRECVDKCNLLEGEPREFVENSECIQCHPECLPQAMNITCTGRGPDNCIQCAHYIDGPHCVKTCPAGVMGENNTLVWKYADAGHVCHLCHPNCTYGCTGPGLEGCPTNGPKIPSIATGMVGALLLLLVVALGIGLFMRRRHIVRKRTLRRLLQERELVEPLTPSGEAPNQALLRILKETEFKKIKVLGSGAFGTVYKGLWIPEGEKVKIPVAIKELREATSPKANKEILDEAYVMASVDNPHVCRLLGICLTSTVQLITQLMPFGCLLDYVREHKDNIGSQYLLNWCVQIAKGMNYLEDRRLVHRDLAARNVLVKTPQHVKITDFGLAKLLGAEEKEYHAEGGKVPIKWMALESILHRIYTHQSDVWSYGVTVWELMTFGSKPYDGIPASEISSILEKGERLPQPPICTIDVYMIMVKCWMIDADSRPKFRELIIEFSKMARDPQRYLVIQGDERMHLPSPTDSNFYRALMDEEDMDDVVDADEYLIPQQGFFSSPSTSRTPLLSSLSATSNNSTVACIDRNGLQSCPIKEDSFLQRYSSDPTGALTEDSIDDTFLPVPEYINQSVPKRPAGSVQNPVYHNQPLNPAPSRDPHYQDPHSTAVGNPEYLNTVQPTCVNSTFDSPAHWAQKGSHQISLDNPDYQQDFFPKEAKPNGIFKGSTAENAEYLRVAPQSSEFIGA
Chain of Btk (Q06187 whole entry): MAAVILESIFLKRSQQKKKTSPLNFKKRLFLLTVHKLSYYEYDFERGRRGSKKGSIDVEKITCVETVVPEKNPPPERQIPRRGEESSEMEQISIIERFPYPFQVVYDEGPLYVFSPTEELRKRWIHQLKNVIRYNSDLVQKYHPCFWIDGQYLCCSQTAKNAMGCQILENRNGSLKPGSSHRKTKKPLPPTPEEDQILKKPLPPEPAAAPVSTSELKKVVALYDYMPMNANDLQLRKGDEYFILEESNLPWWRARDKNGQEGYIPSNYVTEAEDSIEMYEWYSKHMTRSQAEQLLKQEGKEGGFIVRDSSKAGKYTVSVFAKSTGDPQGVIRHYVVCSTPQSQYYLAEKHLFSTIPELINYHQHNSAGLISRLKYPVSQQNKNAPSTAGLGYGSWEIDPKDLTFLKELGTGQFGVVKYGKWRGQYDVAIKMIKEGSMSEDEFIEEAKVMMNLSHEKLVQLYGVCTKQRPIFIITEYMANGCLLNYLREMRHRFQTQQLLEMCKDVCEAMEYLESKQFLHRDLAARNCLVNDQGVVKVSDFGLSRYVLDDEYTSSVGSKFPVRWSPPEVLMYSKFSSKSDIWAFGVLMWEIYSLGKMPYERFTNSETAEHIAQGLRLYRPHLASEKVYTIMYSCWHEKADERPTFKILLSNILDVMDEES

Structure (SMILES) | IC50 (Btk) [nM] | IC50 (EGFR) [nM] | IC50 (JAK3) [nM] | IC50 (Lck) [nM]
O=C(Nc1cc(C(F)(F)F)ccn1)c1ccc(Oc2ccnc3[nH]nc(C4CCCN(C(=O)C5CC5)C4)c23)cc1 (stereo not shown) [compound 218, 4-{[3-(1-cyclopropanecarbonylpiperidin-3-yl)-1H-pyrazolo[3,4-b]pyridin-4-yl]oxy}-N-[4-(trifluoromethyl)pyridin-2-yl]benzamide] | 100 to 1000 | 1000 to 10000 | > 10000 | 1000 to 10000
Cc1ccnc(NC(=O)c2ccc(Oc3ccnc4[nH]nc(N[C@@H]5CCCN(C(=O)C6(C#N)CC6)C5)c34)cc2)c1 [compound 101, 4-[(3-{[(3R)-1-(1-cyanocyclopropanecarbonyl)piperidin-3-yl]amino}-1H-pyrazolo[3,4-b]pyridin-4-yl)oxy]-N-(4-methylpyridin-2-yl)benzamide] | < 100 | > 10000 | > 10000 | 100 to 1000
Cc1cc(NC(=O)c2cccc(Nc3ccnc4[nH]nc(N[C@@H]5CCCN(C(=O)N6CCOCC6)C5)c34)c2)ccc1C(C)C [compound 133, N-[3-methyl-4-(propan-2-yl)phenyl]-3-[(3-{[(3R)-1-(morpholine-4-carbonyl)piperidin-3-yl]amino}-1H-pyrazolo[3,4-b]pyridin-4-yl)amino]benzamide] | 100 to 1000 | > 10000 | > 10000 | 1000 to 10000
Cc1cc(NC(=O)c2cccc(Oc3ccnc4[nH]nc(N[C@@H]5CCCN(C(=O)C#CCO)C5)c34)c2)ccc1C(C)C [compound 251, (R)-3-(3-(1-(4-hydroxybut-2-ynoyl)piperidin-3-ylamino)-1H-pyrazolo[3,4-b]pyridin-4-yloxy)-N-(4-isopropyl-3-methylphenyl)benzamide] | < 100 | < 100 | < 100 | 100 to 1000
Cc1cccc(NC(=O)c2ccc(Oc3ccnc4[nH]nc(N[C@@H]5CCCN(C(=O)C6(C)COC6)C5)c34)cc2)n1 [compound 113, 4-[(3-{[(3R)-1-(3-methyloxetane-3-carbonyl)piperidin-3-yl]amino}-1H-pyrazolo[3,4-b]pyridin-4-yl)oxy]-N-(6-methylpyridin-2-yl)benzamide] | 100 to 1000 | > 10000 | > 10000 | 1000 to 10000
CC#CC(=O)N1CC[C@@H](Nc2n[nH]c3nccc(Oc4ccc(C(=O)Nc5ncc(C)s5)cc4)c23)C1 [compound 181] | < 100 | 1000 to 10000 | > 10000 | 1000 to 10000
Cc1ccnc(NC(=O)c2ccc(Oc3ccnc4[nH]nc(N[C@@H]5CCCN(S(C)(=O)=O)C5)c34)cc2)c1 [compound 269, (R)-N-(4-methylpyridin-2-yl)-4-(3-(1-(methylsulfonyl)piperidin-3-ylamino)-1H-pyrazolo[3,4-b]pyridin-4-yloxy)benzamide] | < 100 | 1000 to 10000 | > 10000 | 100 to 1000

The remaining lines, values ahead:

IC50 (Btk) [nM] | IC50 (EGFR) [nM] | IC50 (JAK3) [nM] | IC50 (Lck) [nM] | Structure (SMILES)
< 100 | > 10000 | > 10000 | 100 to 1000 | Cc1ccnc(NC(=O)c2ccc(Oc3ccnc4[nH]nc(N[C@@H]5CCCN(C(=O)C6(C)CC6)C5)c34)cc2)c1 [compound 120, 4-[(3-{[(3R)-1-(1-methylcyclopropanecarbonyl)piperidin-3-yl]amino}-1H-pyrazolo[3,4-b]pyridin-4-yl)oxy]-N-(4-methylpyridin-2-yl)benzamide]
100 to 1000 | > 10000 | 1000 to 10000 | < 100 | Cc1cc(NC(=O)c2cccc(Oc3ccnc4[nH]nc(N[C@H]5CCN(C(=O)C6CC6)C5)c34)c2)ccc1C(C)C [compound 125, 3-[(3-{[(3S)-1-cyclopropanecarbonylpyrrolidin-3-yl]amino}-1H-pyrazolo[3,4-b]pyridin-4-yl)oxy]-N-[3-methyl-4-(propan-2-yl)phenyl]benzamide]
> 10000 | > 10000 | > 10000 | > 10000 | CCC(=O)N1CCC[C@@H](Nc2n[nH]c3nccc(Oc4ccc(-c5nc6cccc(C)c6o5)cc4)c23)C1 [compound 219, 1-[(3R)-3-({4-[4-(7-methyl-1,3-benzoxazol-2-yl)phenoxy]-1H-pyrazolo[3,4-b]pyridin-3-yl}amino)piperidin-1-yl]propan-1-one]
< 100 | 1000 to 10000 | 1000 to 10000 | > 10000 | C=CC(=O)N1CCC[C@@H](Nc2n[nH]c3nccc(Oc4ccc(-c5nc(C(F)(F)F)c[nH]5)cc4)c23)C1 [compound 154]
< 100 | 100 to 1000 | > 10000 | 100 to 1000 | CN1CCC(C(=O)N2CC[C@@H](Nc3n[nH]c4nccc(Oc5ccc(C(=O)Nc6cc(C(F)(F)F)ccn6)cc5)c34)C2)CC1 [compound 199, 4-[(3-{[1-(1-methylpiperidin-4-carbonyl)pyrrolidin-3-yl]amino}-1H-pyrazolo[3,4-b]pyridin-4-yl)oxy]-N-[4-(trifluoromethyl)pyridin-2-yl]benzamide]
< 100 | 1000 to 10000 | > 10000 | 100 to 1000 | CNC(=O)C(=O)N1CCC[C@@H](Nc2n[nH]c3nccc(Oc4ccc(C(=O)Nc5cc(C)ccn5)cc4)c23)C1 [compound 97, 4-[(3-{[(3R)-1-[(methylcarbamoyl)carbonyl]piperidin-3-yl]amino}-1H-pyrazolo[3,4-b]pyridin-4-yl)oxy]-N-(4-methylpyridin-2-yl)benzamide]
100 to 1000 | 1000 to 10000 | > 10000 | 1000 to 10000 | Cc1cnc(NC(=O)c2ccc(Oc3ccnc4[nH]nc(C5CCCN(C(=O)C6CCN(C)CC6)C5)c34)cc2)s1 (stereo not shown) [compound 217, N-(5-methyl-1,3-thiazol-2-yl)-4-({3-[1-(1-methylpiperidine-4-carbonyl)piperidin-3-yl]-1H-pyrazolo[3,4-b]pyridin-4-yl}oxy)benzamide]
100 to 1000 | 100 to 1000 | 1000 to 10000 | > 10000 | C=CC(=O)N1CCC[C@@H](Nc2n[nH]c3nccc(Oc4cccc(-c5ncc(C)s5)c4)c23)C1 [compound 148]
< 100 | 1000 to 10000 | > 10000 | 100 to 1000 | COCCC(=O)N1CCC[C@@H](Nc2n[nH]c3nccc(Oc4ccc(C(=O)Nc5cc(C)ccn5)cc4)c23)C1 [compound 119, 4-[(3-{[(3R)-1-(3-methoxypropanoyl)piperidin-3-yl]amino}-1H-pyrazolo[3,4-b]pyridin-4-yl)oxy]-N-(4-methylpyridin-2-yl)benzamide]
